The values below are quoted from earlier work in US20020086849A1, “Method for introducing antisense oligonucleotides into eucaryotic cells” (priority 2000, published 2002).

For this data set the following is noted: as described in U.S. Pat. No. 5,753,613.

As for `CCCCCCCCCCCCCCCCCC[N+](C)(C)CCCCCCCCCCCCCCCCCC.[Br-]` [DDAB, dimethyldioctadecylammonium bromide], the transfection efficiency result is recorded as “poor transfection efficiency”.
